Test results: ChEMBL document CHEMBL5212743, “Selectivity Literature for EUbOPEN Chemogenomics Library wave 3” (2023)

What was measured:
[1] = biological target: 5-hydroxytryptamine receptor 2A (Homo sapiens, UniProt P28223); assay: Selectivity interaction (Lead profiling screen (Eurofins, panel of GPCRs, transporters, nuclear receptors, and other enzymes)) EUB0000320b HTR2A; conditions: at 10 µM
[2] = biological target: 5-hydroxytryptamine receptor 2B (Homo sapiens, UniProt P41595); assay: Selectivity interaction (Lead profiling screen (Eurofins, panel of GPCRs, transporters, nuclear receptors, and other enzymes)) EUB0000320b HTR2B; conditions: at 10 µM
[3] = biological target: 5-hydroxytryptamine receptor 2C (Homo sapiens) (UniProt P28335); assay: Selectivity interaction (Lead profiling screen (Eurofins, panel of GPCRs, transporters, nuclear receptors, and other enzymes)) EUB0000320b HTR2C; conditions: at 10 µM
[4] = biological target: T1, Alpha-1A adrenergic receptor (Homo sapiens) (UniProt P35348); assay: Selectivity interaction (Lead profiling screen (Eurofins, panel of GPCRs, transporters, nuclear receptors, and other enzymes)) EUB0000320b ADRA1A; conditions: at 10 µM
T1 sequence (whole entry): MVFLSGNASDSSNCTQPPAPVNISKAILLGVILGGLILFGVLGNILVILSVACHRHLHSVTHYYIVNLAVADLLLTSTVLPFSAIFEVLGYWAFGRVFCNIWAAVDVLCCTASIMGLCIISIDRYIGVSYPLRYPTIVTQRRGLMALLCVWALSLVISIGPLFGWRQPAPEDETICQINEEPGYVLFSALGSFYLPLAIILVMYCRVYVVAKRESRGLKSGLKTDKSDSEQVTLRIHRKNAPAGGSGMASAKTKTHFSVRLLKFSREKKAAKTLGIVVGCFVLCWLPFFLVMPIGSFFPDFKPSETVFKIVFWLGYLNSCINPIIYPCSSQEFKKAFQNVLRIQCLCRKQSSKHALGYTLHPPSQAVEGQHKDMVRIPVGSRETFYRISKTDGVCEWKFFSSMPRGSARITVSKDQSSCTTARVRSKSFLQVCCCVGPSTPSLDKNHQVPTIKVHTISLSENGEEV

[5] = biological target: Kappa-type opioid receptor (Homo sapiens, UniProt P41145); assay: Selectivity interaction (Lead profiling screen (Eurofins, panel of GPCRs, transporters, nuclear receptors, and other enzymes)) EUB0000320b OPRK1; conditions: at 10 µM
[6] = biological target: Serine/threonine-protein kinase 33 (Homo sapiens, UniProt Q9BYT3); assay: Selectivity interaction (KinomeScan (DiscoverX)) EUB0000320b STK33; conditions: at 1 µM
[7] = biological target: Casein kinase II subunit alpha' (Homo sapiens) (UniProt P19784); assay: Selectivity interaction (Kinase panel (Eurofins)) EUB0000320b CSNK2A2; conditions: at 1 µM
[8] = biological target: T2, Myosin-IIIb (Homo sapiens) (UniProt Q8WXR4); assay: Selectivity interaction (KinomeScan (DiscoverX)) EUB0000320b MYO3B; conditions: at 1 µM
T2 sequence (whole entry): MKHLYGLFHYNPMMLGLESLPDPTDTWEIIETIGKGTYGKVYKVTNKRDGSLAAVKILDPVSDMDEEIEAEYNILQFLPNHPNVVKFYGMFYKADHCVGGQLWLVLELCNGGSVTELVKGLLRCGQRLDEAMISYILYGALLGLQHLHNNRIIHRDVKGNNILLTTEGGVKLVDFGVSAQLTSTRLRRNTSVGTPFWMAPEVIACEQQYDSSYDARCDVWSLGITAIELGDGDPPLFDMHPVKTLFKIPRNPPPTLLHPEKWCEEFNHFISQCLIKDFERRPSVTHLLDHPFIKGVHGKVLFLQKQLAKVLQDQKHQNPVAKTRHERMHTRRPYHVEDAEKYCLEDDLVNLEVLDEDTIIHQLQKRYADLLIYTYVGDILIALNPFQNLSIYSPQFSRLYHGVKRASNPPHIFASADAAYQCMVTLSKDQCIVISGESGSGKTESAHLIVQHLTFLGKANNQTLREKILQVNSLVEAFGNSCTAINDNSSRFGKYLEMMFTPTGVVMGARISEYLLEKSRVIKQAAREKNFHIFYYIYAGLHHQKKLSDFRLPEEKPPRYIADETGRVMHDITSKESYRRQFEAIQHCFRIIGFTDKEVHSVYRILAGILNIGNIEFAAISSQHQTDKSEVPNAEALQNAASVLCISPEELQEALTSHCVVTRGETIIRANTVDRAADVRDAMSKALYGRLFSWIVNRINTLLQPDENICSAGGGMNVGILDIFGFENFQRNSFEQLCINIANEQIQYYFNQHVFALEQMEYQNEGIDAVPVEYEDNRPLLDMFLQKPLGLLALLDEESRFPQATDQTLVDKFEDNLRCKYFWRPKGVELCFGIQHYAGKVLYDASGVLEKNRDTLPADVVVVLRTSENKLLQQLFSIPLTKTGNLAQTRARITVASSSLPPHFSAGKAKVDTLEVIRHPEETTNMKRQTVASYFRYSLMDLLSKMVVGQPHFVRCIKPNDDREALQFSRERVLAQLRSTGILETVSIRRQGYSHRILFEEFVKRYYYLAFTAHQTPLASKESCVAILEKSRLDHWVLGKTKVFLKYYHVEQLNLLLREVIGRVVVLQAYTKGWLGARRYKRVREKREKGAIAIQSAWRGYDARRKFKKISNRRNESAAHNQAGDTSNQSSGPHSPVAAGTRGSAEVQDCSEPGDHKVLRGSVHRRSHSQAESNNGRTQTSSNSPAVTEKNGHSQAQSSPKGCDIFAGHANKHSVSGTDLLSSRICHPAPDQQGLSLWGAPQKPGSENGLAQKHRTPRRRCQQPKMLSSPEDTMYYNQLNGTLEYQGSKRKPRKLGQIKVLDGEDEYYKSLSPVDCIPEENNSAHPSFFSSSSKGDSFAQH

[9] = test system: Receptor-type tyrosine-protein kinase FLT3 (Homo sapiens), P36888 [UNDEFINED MUTATION]; assay: Selectivity interaction (KinomeScan (DiscoverX)) EUB0000320b FLT3; conditions: at 1 µM
[10] = biological target: T3, Cytoplasmic tyrosine-protein kinase BMX (Homo sapiens) (UniProt P51813); assay: Selectivity interaction (KinomeScan (DiscoverX)) EUB0000320b BMX; conditions: at 1 µM
T3 sequence (whole entry): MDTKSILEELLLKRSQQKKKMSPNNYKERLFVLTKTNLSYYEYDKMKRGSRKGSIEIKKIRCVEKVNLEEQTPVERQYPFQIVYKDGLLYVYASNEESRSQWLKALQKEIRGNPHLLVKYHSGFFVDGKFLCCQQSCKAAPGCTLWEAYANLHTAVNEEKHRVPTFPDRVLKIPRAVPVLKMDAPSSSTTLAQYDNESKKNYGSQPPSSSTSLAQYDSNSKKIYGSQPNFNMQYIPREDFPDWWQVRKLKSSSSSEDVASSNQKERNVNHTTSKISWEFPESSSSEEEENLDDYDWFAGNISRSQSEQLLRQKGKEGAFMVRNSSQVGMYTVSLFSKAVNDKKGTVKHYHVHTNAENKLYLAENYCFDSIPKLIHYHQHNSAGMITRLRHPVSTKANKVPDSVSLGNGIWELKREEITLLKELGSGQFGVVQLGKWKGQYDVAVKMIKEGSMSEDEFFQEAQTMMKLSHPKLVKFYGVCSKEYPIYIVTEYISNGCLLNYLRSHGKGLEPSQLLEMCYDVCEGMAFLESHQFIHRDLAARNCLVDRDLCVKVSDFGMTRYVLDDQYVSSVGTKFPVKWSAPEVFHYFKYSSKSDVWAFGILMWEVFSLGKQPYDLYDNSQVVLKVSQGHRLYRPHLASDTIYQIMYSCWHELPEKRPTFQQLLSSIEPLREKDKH

[11] = biological target: Prostaglandin E2 receptor EP4 subtype (Homo sapiens, UniProt P35408); assay: Selectivity interaction (Eurofins-Panlabs radioligand binding assay ) EUB0000293b PTGER4; conditions: at 10 µM
[12] = biological target: 5-hydroxytryptamine receptor 3A (Homo sapiens) (UniProt P46098); assay: Selectivity interaction (GPCR panel (PDSP screen)) EUB0000293b HTR3A; conditions: at 10 µM
[13] = biological target: Histamine H1 receptor (Homo sapiens, UniProt P35367); assay: Selectivity interaction (GPCR panel (PDSP screen)) EUB0000251b HRH1; conditions: at 10 µM
[14] = biological target: T4, Sigma intracellular receptor 2 (Homo sapiens, UniProt Q5BJF2); assay: Selectivity interaction (GPCR panel (PDSP screen)) EUB0000251b TMEM97; conditions: at 10 µM
[15] = test system: Phosphatidylinositol 4,5-bisphosphate 3-kinase catalytic subunit alpha isoform (Homo sapiens), P42336 [E542K]; assay: (§1) Selectivity interaction (KinomeScan (DiscoverX)) EUB0000251b PIK3CA; conditions: at 1 µM
[16] = test system: Phosphatidylinositol 4,5-bisphosphate 3-kinase catalytic subunit alpha isoform (Homo sapiens), P42336 [Q546K]; assay: as §1; conditions: at 1 µM
[17] = biological target: Serine/threonine-protein kinase SBK1 (Homo sapiens) (UniProt Q52WX2); assay: Selectivity interaction (KinomeScan (DiscoverX)) EUB0000708a SBK1; conditions: at 1 µM
[18] = biological target: Serine/threonine-protein kinase ULK3 (Homo sapiens) (UniProt Q6PHR2); assay: Selectivity interaction (KinomeScan (DiscoverX)) EUB0000708a ULK3; conditions: at 1 µM
[19] = biological target: T5, Muscarinic acetylcholine receptor M2 (Homo sapiens) (UniProt P08172); assay: Selectivity interaction (GPCR panel (PDSP screen)) EUB0000333a CHRM2; conditions: at 10 µM
T5 sequence (whole entry): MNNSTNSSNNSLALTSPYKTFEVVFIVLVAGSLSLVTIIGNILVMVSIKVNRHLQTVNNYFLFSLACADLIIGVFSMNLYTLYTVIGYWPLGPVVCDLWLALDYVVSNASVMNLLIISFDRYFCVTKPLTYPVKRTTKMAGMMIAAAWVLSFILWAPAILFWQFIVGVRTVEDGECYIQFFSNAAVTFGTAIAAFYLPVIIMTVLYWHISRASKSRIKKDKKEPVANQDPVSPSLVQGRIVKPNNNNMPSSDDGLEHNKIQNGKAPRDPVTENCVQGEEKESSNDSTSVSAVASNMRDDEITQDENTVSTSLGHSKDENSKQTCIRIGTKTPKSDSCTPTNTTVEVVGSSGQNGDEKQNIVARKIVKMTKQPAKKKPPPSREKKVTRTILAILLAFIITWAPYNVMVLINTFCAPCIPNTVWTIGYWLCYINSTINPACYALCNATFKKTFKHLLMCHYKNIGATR

[20] = biological target: P2Y purinoceptor 2 (Homo sapiens) (UniProt P41231); assay: Selectivity interaction (GPCR panel (Eurofins-Cerep)) EUB0000333a P2RY2; conditions: at 10 µM
[21] = biological target: Serine/threonine-protein kinase ICK (Homo sapiens) (UniProt Q9UPZ9); assay: Selectivity interaction (KinomeScan (DiscoverX)) EUB0000333a ICK; conditions: at 1 µM
[22] = biological target: eIF-2-alpha kinase GCN2 (Homo sapiens) (UniProt Q9P2K8); assay: Selectivity interaction (KinomeScan (DiscoverX)) EUB0000333a EIF2AK4; conditions: at 1 µM
[23] = biological target: T4, Sigma intracellular receptor 2; assay: Selectivity interaction (GPCR panel (PDSP screen)) EUB0000333a TMEM97; conditions: at 10 µM
[24] = biological target: 5-hydroxytryptamine receptor 2C (Homo sapiens) (UniProt P28335); assay: Selectivity interaction (GPCR panel (PDSP screen)) EUB0000737a HTR2C; conditions: at 10 µM

T4 sequence (Q5BJF2 whole entry, canonical isoform): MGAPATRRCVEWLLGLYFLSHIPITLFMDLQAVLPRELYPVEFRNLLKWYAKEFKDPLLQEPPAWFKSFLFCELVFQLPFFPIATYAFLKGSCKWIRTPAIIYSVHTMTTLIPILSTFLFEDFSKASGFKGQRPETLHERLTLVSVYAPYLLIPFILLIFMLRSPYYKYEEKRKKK
Sequence of 5-hydroxytryptamine receptor 2C (Homo sapiens) (P28335 whole entry): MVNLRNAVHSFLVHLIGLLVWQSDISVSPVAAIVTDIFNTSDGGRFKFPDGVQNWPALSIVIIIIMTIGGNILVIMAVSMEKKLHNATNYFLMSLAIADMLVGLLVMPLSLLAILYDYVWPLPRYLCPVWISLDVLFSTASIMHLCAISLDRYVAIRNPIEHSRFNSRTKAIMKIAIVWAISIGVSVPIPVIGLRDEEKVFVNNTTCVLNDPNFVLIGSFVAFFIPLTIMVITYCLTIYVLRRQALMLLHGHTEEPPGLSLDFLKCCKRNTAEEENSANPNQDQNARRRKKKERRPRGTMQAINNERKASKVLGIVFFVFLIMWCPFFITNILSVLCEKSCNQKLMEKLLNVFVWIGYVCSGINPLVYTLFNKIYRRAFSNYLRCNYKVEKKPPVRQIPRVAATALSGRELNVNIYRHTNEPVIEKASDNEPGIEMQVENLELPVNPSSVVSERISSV
Sequence of P2Y purinoceptor 2 (Homo sapiens) (P41231 whole entry): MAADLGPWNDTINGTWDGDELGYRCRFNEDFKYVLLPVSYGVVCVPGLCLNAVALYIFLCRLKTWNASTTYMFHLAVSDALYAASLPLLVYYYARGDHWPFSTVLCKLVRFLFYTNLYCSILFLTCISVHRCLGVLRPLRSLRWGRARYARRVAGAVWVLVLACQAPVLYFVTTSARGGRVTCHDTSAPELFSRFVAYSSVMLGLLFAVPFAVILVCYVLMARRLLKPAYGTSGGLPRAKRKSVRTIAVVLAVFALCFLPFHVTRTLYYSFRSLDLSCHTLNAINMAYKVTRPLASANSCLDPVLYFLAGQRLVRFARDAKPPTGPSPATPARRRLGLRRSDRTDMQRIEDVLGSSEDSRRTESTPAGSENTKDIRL
Sequence of Kappa-type opioid receptor (P41145 whole entry): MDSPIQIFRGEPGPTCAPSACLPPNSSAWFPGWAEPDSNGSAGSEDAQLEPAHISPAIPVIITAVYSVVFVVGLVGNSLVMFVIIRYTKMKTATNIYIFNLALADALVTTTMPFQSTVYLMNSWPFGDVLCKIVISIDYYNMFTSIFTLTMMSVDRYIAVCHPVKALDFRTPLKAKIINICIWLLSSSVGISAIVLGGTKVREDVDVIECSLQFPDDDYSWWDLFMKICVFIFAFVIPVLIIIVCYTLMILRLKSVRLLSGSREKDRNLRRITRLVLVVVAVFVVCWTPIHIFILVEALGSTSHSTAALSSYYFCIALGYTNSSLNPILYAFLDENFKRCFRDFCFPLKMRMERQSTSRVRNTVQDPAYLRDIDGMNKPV
Sequence of Serine/threonine-protein kinase ULK3 (Homo sapiens) (Q6PHR2 whole entry): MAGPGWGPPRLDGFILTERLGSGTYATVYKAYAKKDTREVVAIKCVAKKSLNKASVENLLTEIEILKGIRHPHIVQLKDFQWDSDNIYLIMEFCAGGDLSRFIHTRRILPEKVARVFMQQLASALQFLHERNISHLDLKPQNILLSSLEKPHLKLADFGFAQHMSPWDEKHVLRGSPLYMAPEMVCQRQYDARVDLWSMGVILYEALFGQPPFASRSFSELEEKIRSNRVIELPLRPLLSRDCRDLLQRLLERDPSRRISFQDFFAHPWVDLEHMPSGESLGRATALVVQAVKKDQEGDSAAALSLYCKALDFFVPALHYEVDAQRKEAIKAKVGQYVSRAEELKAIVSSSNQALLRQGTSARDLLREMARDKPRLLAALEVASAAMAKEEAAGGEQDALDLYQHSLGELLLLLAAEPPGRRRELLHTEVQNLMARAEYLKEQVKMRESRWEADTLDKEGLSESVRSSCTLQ
Sequence of Prostaglandin E2 receptor EP4 subtype (P35408 whole entry): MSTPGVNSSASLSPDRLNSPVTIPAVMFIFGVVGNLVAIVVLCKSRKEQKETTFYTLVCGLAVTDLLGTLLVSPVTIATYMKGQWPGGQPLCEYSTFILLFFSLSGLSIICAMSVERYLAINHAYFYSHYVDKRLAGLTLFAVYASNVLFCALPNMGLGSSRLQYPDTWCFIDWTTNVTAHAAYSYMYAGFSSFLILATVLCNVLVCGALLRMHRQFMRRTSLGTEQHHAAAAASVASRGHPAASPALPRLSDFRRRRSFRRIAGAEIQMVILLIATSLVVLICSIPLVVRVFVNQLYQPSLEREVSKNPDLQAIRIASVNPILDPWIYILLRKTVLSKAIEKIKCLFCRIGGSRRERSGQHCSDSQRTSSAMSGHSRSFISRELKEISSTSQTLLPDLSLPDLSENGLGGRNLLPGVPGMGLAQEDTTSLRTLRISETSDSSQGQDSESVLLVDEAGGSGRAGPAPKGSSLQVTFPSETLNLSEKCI
Sequence of 5-hydroxytryptamine receptor 3A (Homo sapiens) (P46098 whole entry): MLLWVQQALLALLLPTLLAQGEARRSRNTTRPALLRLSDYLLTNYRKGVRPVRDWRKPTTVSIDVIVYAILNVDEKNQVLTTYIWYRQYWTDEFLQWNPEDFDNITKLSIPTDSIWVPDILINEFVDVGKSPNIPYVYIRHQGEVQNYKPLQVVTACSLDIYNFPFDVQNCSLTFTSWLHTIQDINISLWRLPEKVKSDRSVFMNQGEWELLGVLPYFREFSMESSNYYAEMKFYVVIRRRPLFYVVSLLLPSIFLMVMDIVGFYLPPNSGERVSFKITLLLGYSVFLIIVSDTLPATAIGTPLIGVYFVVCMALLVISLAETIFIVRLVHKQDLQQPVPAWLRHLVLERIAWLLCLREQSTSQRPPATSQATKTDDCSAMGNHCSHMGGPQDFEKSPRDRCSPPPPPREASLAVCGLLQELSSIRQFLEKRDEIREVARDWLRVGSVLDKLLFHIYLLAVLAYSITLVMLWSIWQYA
Sequence of Serine/threonine-protein kinase ICK (Homo sapiens) (Q9UPZ9 whole entry): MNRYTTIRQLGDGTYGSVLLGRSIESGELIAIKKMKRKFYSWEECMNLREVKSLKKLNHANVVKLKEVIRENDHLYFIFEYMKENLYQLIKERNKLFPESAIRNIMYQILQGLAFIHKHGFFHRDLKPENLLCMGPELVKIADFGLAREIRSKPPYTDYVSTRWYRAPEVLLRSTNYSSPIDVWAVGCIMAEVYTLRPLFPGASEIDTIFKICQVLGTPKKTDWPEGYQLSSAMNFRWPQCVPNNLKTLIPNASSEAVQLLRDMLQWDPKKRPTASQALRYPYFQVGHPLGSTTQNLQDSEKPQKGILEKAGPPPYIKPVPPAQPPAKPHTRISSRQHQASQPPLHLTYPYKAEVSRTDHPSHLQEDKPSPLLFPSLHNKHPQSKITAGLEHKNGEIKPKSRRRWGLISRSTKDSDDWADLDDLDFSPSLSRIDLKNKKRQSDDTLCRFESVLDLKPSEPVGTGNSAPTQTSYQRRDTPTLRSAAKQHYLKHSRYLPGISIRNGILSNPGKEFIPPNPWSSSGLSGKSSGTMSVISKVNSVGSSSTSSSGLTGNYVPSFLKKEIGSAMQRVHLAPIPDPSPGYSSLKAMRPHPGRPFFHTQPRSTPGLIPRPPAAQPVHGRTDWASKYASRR
Sequence of Histamine H1 receptor (P35367 whole entry): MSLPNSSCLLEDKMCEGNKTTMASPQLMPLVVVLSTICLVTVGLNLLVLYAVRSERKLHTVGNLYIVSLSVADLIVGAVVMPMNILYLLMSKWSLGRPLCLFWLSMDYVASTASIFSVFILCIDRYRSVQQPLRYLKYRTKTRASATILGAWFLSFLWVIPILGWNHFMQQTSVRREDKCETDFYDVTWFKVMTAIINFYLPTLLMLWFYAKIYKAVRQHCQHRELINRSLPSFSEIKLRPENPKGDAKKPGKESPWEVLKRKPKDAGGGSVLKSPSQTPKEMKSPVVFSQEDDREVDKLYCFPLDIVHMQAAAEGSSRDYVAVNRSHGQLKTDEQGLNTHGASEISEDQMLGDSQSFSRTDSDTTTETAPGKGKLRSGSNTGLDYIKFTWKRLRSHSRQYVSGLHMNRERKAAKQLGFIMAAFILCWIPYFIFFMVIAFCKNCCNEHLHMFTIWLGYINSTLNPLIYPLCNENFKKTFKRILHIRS
Sequence of 5-hydroxytryptamine receptor 2B (P41595 whole entry): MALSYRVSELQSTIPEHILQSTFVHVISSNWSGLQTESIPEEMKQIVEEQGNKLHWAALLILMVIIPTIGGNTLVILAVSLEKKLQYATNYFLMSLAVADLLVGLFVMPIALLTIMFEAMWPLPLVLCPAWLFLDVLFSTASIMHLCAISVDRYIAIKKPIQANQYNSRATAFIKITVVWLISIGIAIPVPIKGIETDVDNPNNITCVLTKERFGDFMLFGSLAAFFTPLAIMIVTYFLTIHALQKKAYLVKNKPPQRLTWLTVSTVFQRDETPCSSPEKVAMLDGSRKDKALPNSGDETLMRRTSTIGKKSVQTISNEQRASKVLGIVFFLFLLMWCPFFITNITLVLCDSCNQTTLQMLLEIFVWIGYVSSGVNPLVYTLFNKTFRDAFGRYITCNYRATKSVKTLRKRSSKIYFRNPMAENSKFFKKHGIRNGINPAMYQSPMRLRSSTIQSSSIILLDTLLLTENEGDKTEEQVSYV
Sequence of 5-hydroxytryptamine receptor 2A (P28223 whole entry): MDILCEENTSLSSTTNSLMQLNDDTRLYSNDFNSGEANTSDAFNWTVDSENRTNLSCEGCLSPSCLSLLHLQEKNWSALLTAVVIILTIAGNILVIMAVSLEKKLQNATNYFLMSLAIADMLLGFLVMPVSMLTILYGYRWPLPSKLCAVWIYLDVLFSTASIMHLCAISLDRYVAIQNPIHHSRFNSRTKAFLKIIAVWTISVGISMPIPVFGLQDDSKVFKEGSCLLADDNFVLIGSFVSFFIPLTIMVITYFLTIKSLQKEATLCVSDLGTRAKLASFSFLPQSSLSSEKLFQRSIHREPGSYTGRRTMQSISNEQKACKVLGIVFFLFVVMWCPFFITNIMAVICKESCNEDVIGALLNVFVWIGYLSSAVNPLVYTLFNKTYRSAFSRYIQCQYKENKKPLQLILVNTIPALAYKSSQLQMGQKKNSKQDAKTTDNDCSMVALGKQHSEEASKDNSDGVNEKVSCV

Compound: CNCc1ccccc1-c1csc([C@@H](C)Nc2nc(C)nc3cc(OC)c(OC)cc23)c1
- % of inhibition [1]: 110%
- % of inhibition [2]: 100%
- % of inhibition [3]: 104%
- % of inhibition [4]: 106%
- % of inhibition [5]: 105%
- % of control [6]: 45%
- % of control [7]: 67%
- % of control [8]: 47%
- % of control [9]: 48%
- % of control [10]: 49%

Compound: CC1=C(C#N)C(c2ccc3[nH]nc(C)c3c2)C(C#N)=C(C)N1
- % of inhibition [11]: 19%
- % of control [12]: 33%

Compound: Cc1c(NC(=O)c2cc(C(N)=O)nc3cc(F)ccc23)c(C(F)(F)F)nn1Cc1ccc(C(C)(C)C)cc1
- % of inhibition [13]: 46%
- % of inhibition [14]: 41%
- % of control [15]: 43%
- % of control [16]: 32%

Compound: Cc1nc(C2CCN(C(=O)c3ccc(OC(F)(F)F)cc3N)CC2)c2ncc(N3CCN(C)CC3)cc2n1
- % of control [17]: 40%
- % of control [18]: 46%

Compound: Cc1noc([C@H]2C[C@@H](c3ccc(C(F)(F)F)cc3)CN(C(=O)N3CCS(=O)(=O)C3)C2)n1
- inhibition [19]: 39%
- inhibition [20]: 29%
- % of control [21]: 62%
- % of control [22]: 28%
- inhibition [23]: 42%

Compound: CC(=O)C1=C(C)N(c2cccc(C(F)(F)F)c2)C(=O)N[C@H]1c1ccc(C#N)nc1
- % of inhibition [24]: 29%
